In patent US12174198B2, “Methods of characterizing condensate-associated characteristics of compounds and uses thereof” (Dewpoint Therapeutics, Inc., priority 2019, dated 2024):

Assays:
Format in all cases: physicochemical
PGL-3 condensates = molecular target: T1, PGL-3 condensates (Caenorhabditis elegans, UniProt G5EBV6); experiment: Fluorescence imaging of dye partitioning in PGL-3 condensates (I-in, I-out)
T1 sequence (G5EBV6 1-693): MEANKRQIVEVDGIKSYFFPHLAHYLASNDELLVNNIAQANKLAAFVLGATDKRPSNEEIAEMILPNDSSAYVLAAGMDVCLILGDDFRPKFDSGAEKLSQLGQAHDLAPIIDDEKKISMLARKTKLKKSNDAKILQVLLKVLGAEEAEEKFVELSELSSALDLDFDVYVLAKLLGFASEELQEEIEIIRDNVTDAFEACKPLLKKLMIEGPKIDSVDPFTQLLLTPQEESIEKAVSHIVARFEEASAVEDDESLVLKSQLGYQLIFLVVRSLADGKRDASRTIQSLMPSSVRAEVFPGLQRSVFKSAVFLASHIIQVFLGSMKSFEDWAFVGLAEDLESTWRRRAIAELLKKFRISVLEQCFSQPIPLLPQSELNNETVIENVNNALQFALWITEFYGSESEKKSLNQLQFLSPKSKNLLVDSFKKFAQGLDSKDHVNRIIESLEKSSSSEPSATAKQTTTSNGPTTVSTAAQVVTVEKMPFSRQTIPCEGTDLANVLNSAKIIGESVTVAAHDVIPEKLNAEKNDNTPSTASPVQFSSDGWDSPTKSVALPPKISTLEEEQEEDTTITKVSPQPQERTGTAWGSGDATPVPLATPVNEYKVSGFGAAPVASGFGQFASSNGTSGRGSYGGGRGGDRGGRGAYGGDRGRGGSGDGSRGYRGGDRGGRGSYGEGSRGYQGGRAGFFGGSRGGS
Experimental: (§1) All dye-stocks were stored as 1 mM solutions in 100% DMSO. The dyes were dissolved in dilution buffer (DB: 14.7 mM Tris, pH 7.25, 1 mM DTT) to yield 11.765 μM dye in 1.1765 DMSO. 17 μl of dye was distributed in a 384 well non-binding plate (Greiner).
(§2) Either SNAP-tagged FUS protein or tag-free PGL-3 protein was thawed at room temperature for at least 10 min, and the buffer was exchanged to partitioning buffer (PB: 50 mM Tris pH 7.25, 500 mM KCl, 5% Glycerol, and 1 mM DTT). The protein was then diluted to 33.3 μM in PB. 3 μl of protein solution were added to the 384 well plate to initiate phase separation, yielding 20 μl of 5 μM protein and 10 μM dye in 75 mM KCl, 0.75% Glycerol, 20 mM Tris, 1 mM DTT, and 1% DMSO or for no dye control reactions, 20 μl of 5 μM protein in 75 mM KCl, 0.75% Glycerol, 20 mM Tris, 1 mM DTT.
(§3) A spinning disk confocal microscope was used to acquire images of the samples. A 60×oil high-NA objective lens was used to capture the condensate droplets. The laser power was set to 20% and the exposure times were adjusted to the fluorescence emission intensity specific for each dye. Exposure times ranged from 1-1000 ms. Appropriate filter settings were used, matching the excitation and emission spectra of the respective dyes. Three images per well were taken. The background signal of protein droplets in the absence of dye was recorded for all applied imaging conditions.
(§4) Fluorescence intensity was measured inside one exemplary target condensate (Intensity inside, I-in) per image and in a region next to the exemplary target condensate (Intensity outside, I-out) by hand using the image analysis software Fiji. An example depicting the regions measured is shown FIG. 2A. Three I-in and three I-out values were measured in total for each dye in each experiment and were averaged. The measured I-in and I-out values for FUS-SNAP condensates on one day of experiments are shown in Table 2 and Table 3, respectively. The measured I-in and I-out values for PGL-3 condensates on one day of experiments are shown in Table 4 and Table 5, respectively. All values were background corrected, based on the background images (no dye controls) taken with the same microscope conditions.
(§5) The ratios of the average intensity measured in the target condensates and outside of the target condensates were calculated by dividing I-in by I-out, although dividing I-out by I-in could also have been used. The I-in:I-out ratios determined from the two different days of experiments were then averaged. The average I-in:I-out ratios for FUS-SNAP condensates are shown in FIG. 3 and the average I-in:I-out ratios for PGL-3 condensates are shown in FIG. 4. The standard deviation between the two experiments is represented by the error bars in FIG. 3 and FIG. 4.

[1] = system: FUS-SNAP condensates versus PGL-3 condensates; experiment: Condensate preference: ratio of FUS-SNAP I-in:I-out to PGL-3 I-in:I-out; details: average FUS-SNAP I-in:I-out divided by average PGL-3 I-in:I-out
Experimental: as §5

FUS-SNAP condensates = molecular target: T2, FUS-SNAP condensates (Homo sapiens, UniProt P35637); experiment: Fluorescence imaging of dye partitioning in FUS-SNAP condensates (I-in, I-out)
T2 sequence (P35637 1-526): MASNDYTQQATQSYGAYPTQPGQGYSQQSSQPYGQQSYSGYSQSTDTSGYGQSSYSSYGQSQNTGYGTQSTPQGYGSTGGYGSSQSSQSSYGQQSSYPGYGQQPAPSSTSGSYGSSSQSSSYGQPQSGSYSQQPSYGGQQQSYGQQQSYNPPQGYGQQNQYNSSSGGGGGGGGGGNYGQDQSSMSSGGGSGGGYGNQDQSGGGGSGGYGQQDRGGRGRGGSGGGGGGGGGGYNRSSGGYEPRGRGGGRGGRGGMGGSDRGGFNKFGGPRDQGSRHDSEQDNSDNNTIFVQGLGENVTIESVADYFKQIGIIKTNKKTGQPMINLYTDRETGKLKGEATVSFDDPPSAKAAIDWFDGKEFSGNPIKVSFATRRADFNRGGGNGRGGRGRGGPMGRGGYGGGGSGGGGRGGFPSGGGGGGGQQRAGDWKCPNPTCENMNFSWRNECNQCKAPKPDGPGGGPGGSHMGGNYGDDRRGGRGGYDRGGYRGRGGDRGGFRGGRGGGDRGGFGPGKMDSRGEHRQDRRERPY
Experimental: as §1, §2, §3, §4, §5

[2] = I-in:I-out, average of two days, 10 μM dye

- Ratio of intensity inside:outside PGL-3 Condensates Day 1 (PGL-3 condensates; I-in:I-out, Day 1, 10 μM dye): 1.0
- Ratio of intensity inside:outside PGL-3 Condensates Day 2 (PGL-3 condensates; I-in:I-out, Day 2, 10 μM dye): 1.1
- Ratio of intensity inside:outside PGL-3 Condensates Average (PGL-3 condensates; [2]): 1.1
- Intensity Inside with Dye Average (PGL-3 condensates; inside PGL-3 condensate, 10 μM dye, 5 μM protein, average of three images, one day of experiments): 1834.5
- Intensity Inside with Dye 1 (PGL-3 condensates; inside PGL-3 condensate, 10 μM dye, 5 μM protein, image 1, one day of experiments): 1912.6
- Intensity Inside with Dye 2 (PGL-3 condensates; inside PGL-3 condensate, 10 μM dye, 5 μM protein, image 2, one day of experiments): 1794.0
- Intensity Inside with Dye 3 (PGL-3 condensates; inside PGL-3 condensate, 10 μM dye, 5 μM protein, image 3, one day of experiments): 1797.0
- Intensity Inside Dye-No Dye (PGL-3 condensates; inside PGL-3 condensate, background corrected, one day of experiments): 1237.3
- Intensity Outside with Dye Average (PGL-3 condensates; outside PGL-3 condensate, 10 μM dye, 5 μM protein, average of three images, one day of experiments): 1392.9
- Intensity Outside with Dye 1 (PGL-3 condensates; outside PGL-3 condensate, 10 μM dye, 5 μM protein, image 1, one day of experiments): 1439.0
- Intensity Outside with Dye 2 (PGL-3 condensates; outside PGL-3 condensate, 10 μM dye, 5 μM protein, image 2, one day of experiments): 1386.2
- Intensity Outside with Dye 3 (PGL-3 condensates; outside PGL-3 condensate, 10 μM dye, 5 μM protein, image 3, one day of experiments): 1353.5
- Intensity Outside (Dye-No Dye) (PGL-3 condensates; outside PGL-3 condensate, background corrected, one day of experiments): 1230.0
- Ratio of FUS-SNAP:PGL-3 [1]: 1.3
- Ratio of intensity inside:outside FUS-SNAP Condensates Day 1 (FUS-SNAP condensates; I-in:I-out, Day 1, 10 μM dye): 1.2
- Ratio of intensity inside:outside FUS-SNAP Condensates Day 2 (FUS-SNAP condensates; I-in:I-out, Day 2, 10 μM dye): 1.4
- Ratio of intensity inside:outside FUS-SNAP Condensates Average (FUS-SNAP condensates; [2]): 1.3
- Intensity Inside with Dye Average (FUS-SNAP condensates; inside FUS-SNAP condensate, 10 μM dye, 5 μM protein, average of three images, one day of experiments): 1896.7
- Intensity Inside with Dye 1 (FUS-SNAP condensates; inside FUS-SNAP condensate, 10 μM dye, 5 μM protein, image 1, one day of experiments): 2046.8
- Intensity Inside with Dye 2 (FUS-SNAP condensates; inside FUS-SNAP condensate, 10 μM dye, 5 μM protein, image 2, one day of experiments): 2005.1
- Intensity Inside with Dye 3 (FUS-SNAP condensates; inside FUS-SNAP condensate, 10 μM dye, 5 μM protein, image 3, one day of experiments): 1638.1
- Intensity Inside Dye-No Dye (FUS-SNAP condensates; inside FUS-SNAP condensate, background corrected, one day of experiments): 1399.1
- Intensity Outside with Dye Average (FUS-SNAP condensates; outside FUS-SNAP condensate, 10 μM dye, 5 μM protein, average of three images, one day of experiments): 1272.5
- Intensity Outside with Dye 1 (FUS-SNAP condensates; outside FUS-SNAP condensate, 10 μM dye, 5 μM protein, image 1, one day of experiments): 1319.4
- Intensity Outside with Dye 2 (FUS-SNAP condensates; outside FUS-SNAP condensate, 10 μM dye, 5 μM protein, image 2, one day of experiments): 1306.9
- Intensity Outside with Dye 3 (FUS-SNAP condensates; outside FUS-SNAP condensate, 10 μM dye, 5 μM protein, image 3, one day of experiments): 1191.0
- Intensity Outside (Dye-No Dye) (FUS-SNAP condensates; outside FUS-SNAP condensate, background corrected, one day of experiments): 1132.4
Compound: CC(=O)N[C@H]1[C@H](Oc2ccc3c(c2)Oc2cc(O)ccc2C32OC(=O)c3ccccc32)O[C@H](CO)[C@H](O)[C@@H]1O (stereo partly drawn) [Dye 5, Fluorescein mono-(N-acetyl-β-D-galactosaminide)]
